Source: patent US9695155B2, “Herbicidal substituted pyrimidinyloxy benzene compounds” (E. I. DU PONT DE NEMOURS AND COMPANY, priority 2013, dated 2017)

Experiments:
barnyardgrass = test: Test A preemergence; type: in vivo, Echinochloa crus-galli
How it was run: (§1)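 Injury scores run from 0, no effect, to 100, complete control, judged by eye against untreated plants roughly 10 days after treatment. Chemicals carried a surfactant in a non-phytotoxic solvent and went onto loam–sand soil preemergence or onto one- to two-leaf seedlings postemergence.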

velvetleaf = test: Test A postemergence; type: in vivo, Abutilon theophrasti; conditions: 0 to 100 scale where 0 is no effect and 100 is complete control
How it was run: as §1

rice = test: Test B flooded paddy test; type: in vivo, Oryza sativa; conditions: Flood, 250 g ai/ha, 0 to 100 scale where 0 is no effect and 100 is complete control
How it was run: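 Evaluation is visual, against untreated controls, 13 to 15 days after treatment. Before treatment, plants reached the 2-leaf stage; pots were then flooded 3 cm deep, compound was added to the water, and that level was maintained. Ratings run 0 to 100, with 100 meaning complete control.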

galium = test: Test C preemergence; type: in vivo, Galium aparine
How it was run: (§2)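 Plants were kept under greenhouse conditions for 13–15 days following spray. Pre-emergent application went to soil (loam–sand), post-emergent to foliage at 1–4 leaves. Evaluation: visual, percent control against untreated checks.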

corn = test: Test C preemergence; type: in vivo, Zea mays
How it was run: as §2

morningglory [1] = test: Test C preemergence; type: in vivo, Ipomoea coccinea
How it was run: as §2

yellow nutsedge [2] = test: Test C preemergence; type: in vivo, Cyperus esculentus
How it was run: as §2

oilseed rape = test: Test C preemergence; type: in vivo, Brassica napus
How it was run: as §2

blackgrass = test: Test C postemergence; type: in vivo, Alopecurus myosuroides
How it was run: as §2

morningglory [3] = test: Test C postemergence; type: in vivo, Ipomoea coccinea
How it was run: as §2

yellow nutsedge [4] = test: Test C postemergence; type: in vivo, Cyperus esculentus
How it was run: as §2

kochia = test: Test C postemergence; type: in vivo, Kochia scoparia
How it was run: as §2

wild oat = test: Test C postemergence; type: in vivo, Avena fatua
How it was run: as §2

[5] = 31 g ai/ha, postemergence, visual rating, scale 0 to 100 (0 no effect, 100 complete control), 13 to 15 days
[6] = 16 g ai/ha, preemergence, scale 0 to 100 (0 no effect, 100 complete control)
[7] = 62 g ai/ha, preemergence, scale 0 (no effect) to 100 (complete control)
[8] = 125 g ai/ha, preemergence, scale 0 (no effect) to 100 (complete control)
[9] = Preemergence, 31 g ai/ha, scale 0 to 100, 0 no effect, 100 complete control
[10] = 16 g ai/ha, postemergence, visual rating, scale 0 to 100 (0 no effect, 100 complete control), 13 to 15 days
[11] = Postemergence, 31 g ai/ha, scale 0 to 100 (0 no effect, 100 complete control), 13 to 15 days
[12] = Postemergence, 62 g ai/ha, scale 0 to 100 (0 no effect, 100 complete control)

FC(F)(F)c1cn(-c2ccccc2Oc2ncc(Cl)cn2)nn1 [Compound 166, 5-chloro-2-[2-[4-(trifluoromethyl)-1H-1,2,3-triazol-1-yl]phenoxy]pyrimidine]
pest or weed control at 125 g/ha (barnyardgrass; Echinochloa crus-galli, pre-emergence, 240 h, 125 g ai/ha, 0 to 100 scale where 0 is no effect and 100 is complete control, read-out: Plant response rating, Barnyardgrass): 90% | pest or weed control at 500 g/ha (barnyardgrass; Echinochloa crus-galli, pre-emergence, 240 h, 500 g ai/ha, 0 to 100 scale where 0 is no effect and 100 is complete control, read-out: Barnyardgrass plant response rating): 100% | Velvetleaf plant response rating (velvetleaf; 125 g ai/ha): 100 | pest or weed control at 500 g/ha (velvetleaf; Abutilon theophrasti, post-emergence, 240 h, 500 g ai/ha, read-out: Plant response rating, Velvetleaf): 100% | plant injury at 250 g/ha (rice; Oryza sativa, read-out: Plant response rating, Rice): 75% | pest or weed control at 16 g/ha (galium; Galium, pre-emergence, 16 g ai/ha, preemergence, scale 0 to 100 (0 no effect, 100 complete control), read-out: Galium plant response rating): 98% | pest or weed control at 62 g/ha (galium; Galium, pre-emergence, 62 g ai/ha, preemergence, scale 0 (no effect) to 100 (complete control), read-out: Galium plant response rating): 95% | pest or weed control at 125 g/ha (galium; Galium, pre-emergence, 125 g ai/ha, preemergence, scale 0 (no effect) to 100 (complete control), read-out: Galium plant response rating): 95% | pest or weed control at 31 g/ha (galium; Galium, pre-emergence, Preemergence, 31 g ai/ha, scale 0 to 100, 0 no effect, 100 complete control, read-out: Plant response rating, Galium): 100% | plant injury at 16 g/ha (corn; Zea mays, pre-emergence, 16 g ai/ha, preemergence, scale 0 to 100 (0 no effect, 100 complete control), read-out: Corn plant response rating): 0% | plant injury at 62 g/ha (corn; Zea mays, pre-emergence, 62 g ai/ha, preemergence, scale 0 (no effect) to 100 (complete control), read-out: Corn plant response rating): 40% | plant injury at 125 g/ha (corn; Zea mays, pre-emergence, 125 g ai/ha, preemergence, scale 0 (no effect) to 100 (complete control), read-out: Corn plant response rating): 80% | Corn plant response rating (crop injury, 0 = no effect, 100 = complete kill) at 31 g/ha (corn; Zea mays, pre-emergence, Preemergence, 31 g ai/ha, scale 0 to 100, 0 no effect, 100 complete control): 25% | pest or weed control at 16 g/ha (morningglory [1]; Ipomoea, pre-emergence, 16 g ai/ha, preemergence, scale 0 to 100 (0 no effect, 100 complete control), read-out: Morningglory plant response rating): 15% | pest or weed control at 62 g/ha (morningglory [1]; Ipomoea, pre-emergence, 62 g ai/ha, preemergence, scale 0 (no effect) to 100 (complete control), read-out: Morningglory plant response rating): 98% | pest or weed control at 125 g/ha (morningglory [1]; Ipomoea, pre-emergence, 125 g ai/ha, preemergence, scale 0 (no effect) to 100 (complete control), read-out: Morningglory plant response rating): 100% | pest or weed control at 16 g/ha (yellow nutsedge [2]; Cyperus, pre-emergence, 16 g ai/ha, preemergence, scale 0 to 100 (0 no effect, 100 complete control), read-out: Nutsedge, Yellow plant response rating): 0% | pest or weed control at 62 g/ha (yellow nutsedge [2]; Cyperus, pre-emergence, 62 g ai/ha, preemergence, scale 0 (no effect) to 100 (complete control), read-out: Nutsedge, Yellow plant response rating): 35% | pest or weed control at 125 g/ha (yellow nutsedge [2]; Cyperus, pre-emergence, 125 g ai/ha, preemergence, scale 0 (no effect) to 100 (complete control), read-out: Nutsedge, Yellow plant response rating): 80% | plant injury at 16 g/ha (oilseed rape; Brassica napus, pre-emergence, 16 g ai/ha, preemergence, scale 0 to 100 (0 no effect, 100 complete control), read-out: Oilseed Rape plant response rating): 90% | plant injury at 62 g/ha (oilseed rape; Brassica napus, pre-emergence, 62 g ai/ha, preemergence, scale 0 (no effect) to 100 (complete control), read-out: Oilseed Rape plant response rating): 100% | plant injury at 125 g/ha (oilseed rape; Brassica napus, pre-emergence, 125 g ai/ha, preemergence, scale 0 (no effect) to 100 (complete control), read-out: Oilseed Rape plant response rating): 100% | pest or weed control at 16 g/ha (blackgrass; Alopecurus myosuroides, post-emergence, 16 g ai/ha, postemergence, 0 is no effect, 100 is complete control, read-out: Plant response rating (0 to 100), Blackgrass): 5% | pest or weed control at 31 g/ha (blackgrass; Alopecurus myosuroides, post-emergence, 31 g ai/ha, postemergence, visual rating, scale 0 to 100 (0 no effect, 100 complete control), 13 to 15 days, read-out: Blackgrass plant response rating): 10% | pest or weed control at 125 g/ha (blackgrass; Alopecurus myosuroides, post-emergence, 125 g ai/ha, postemergence, visual rating, scale 0 to 100 (0 no effect, 100 complete control), read-out: Plant response rating, Blackgrass): 60% | pest or weed control at 62 g/ha (blackgrass; Alopecurus myosuroides, post-emergence, Postemergence, 62 g ai/ha, scale 0 to 100 (0 no effect, 100 complete control), read-out: Plant response rating, Blackgrass): 45% | Morningglory plant response rating (morningglory [3]; [5]): 70 | pest or weed control at 16 g/ha (morningglory [3]; Ipomoea, post-emergence, 16 g ai/ha, postemergence, 0 is no effect, 100 is complete control, read-out: Plant response rating (0 to 100), Morningglory): 85% | pest or weed control at 125 g/ha (morningglory [3]; Ipomoea, post-emergence, 125 g ai/ha, postemergence, visual rating, scale 0 to 100 (0 no effect, 100 complete control), read-out: Plant response rating, Morningglory): 95% | pest or weed control at 62 g/ha (morningglory [3]; Ipomoea, post-emergence, Postemergence, 62 g ai/ha, scale 0 to 100 (0 no effect, 100 complete control), read-out: Plant response rating, Morningglory): 85% | Nutsedge, Yellow plant response rating (yellow nutsedge [4]; [5]): 5 | pest or weed control at 16 g/ha (yellow nutsedge [4]; Cyperus, post-emergence, 16 g ai/ha, postemergence, 0 is no effect, 100 is complete control, read-out: Plant response rating (0 to 100), Nutsedge, Yellow): 0% | pest or weed control at 125 g/ha (yellow nutsedge [4]; Cyperus, post-emergence, 125 g ai/ha, postemergence, visual rating, scale 0 to 100 (0 no effect, 100 complete control), read-out: Plant response rating, Nutsedge, Yellow): 5% | pest or weed control at 62 g/ha (yellow nutsedge [4]; Cyperus, post-emergence, Postemergence, 62 g ai/ha, scale 0 to 100 (0 no effect, 100 complete control), read-out: Plant response rating, Nutsedge, Yellow): 5% | pest or weed control at 16 g/ha (kochia; Bassia scoparia, post-emergence, 16 g ai/ha, postemergence, 0 is no effect, 100 is complete control, read-out: Plant response rating (0 to 100), Kochia): 90% | pest or weed control at 31 g/ha (kochia; Bassia scoparia, post-emergence, 31 g ai/ha, postemergence, visual rating, scale 0 to 100 (0 no effect, 100 complete control), 13 to 15 days, read-out: Kochia plant response rating): 90% | pest or weed control at 125 g/ha (kochia; Bassia scoparia, post-emergence, 125 g ai/ha, postemergence, visual rating, scale 0 to 100 (0 no effect, 100 complete control), read-out: Plant response rating, Kochia): 100% | pest or weed control at 62 g/ha (kochia; Bassia scoparia, post-emergence, Postemergence, 62 g ai/ha, scale 0 to 100 (0 no effect, 100 complete control), read-out: Plant response rating, Kochia): 90% | Oat, Wild plant response rating (wild oat; [5]): 10 | pest or weed control at 16 g/ha (wild oat; Avena fatua, post-emergence, 16 g ai/ha, postemergence, 0 is no effect, 100 is complete control, read-out: Plant response rating (0 to 100), Oat, Wild): 5% | pest or weed control at 125 g/ha (wild oat; Avena fatua, post-emergence, 125 g ai/ha, postemergence, visual rating, scale 0 to 100 (0 no effect, 100 complete control), read-out: Plant response rating, Oat, Wild): 50% | pest or weed control at 62 g/ha (wild oat; Avena fatua, post-emergence, Postemergence, 62 g ai/ha, scale 0 to 100 (0 no effect, 100 complete control), read-out: Plant response rating, Oat, Wild): 35%

CCOc1cnn(-c2c(C#N)cccc2Oc2ncc(Cl)cn2)c1 [Compound 92]
Plant response rating, Barnyardgrass (barnyardgrass; 125 g ai/ha, 0 to 100 scale where 0 is no effect and 100 is complete control): 60 | Barnyardgrass plant response rating (barnyardgrass; 500 g ai/ha, 0 to 100 scale, 0 no effect, 100 complete control, approx. 10 days): 100 | Plant response rating, Velvetleaf (velvetleaf; 125 g ai/ha): 100 | Plant response rating, Velvetleaf (velvetleaf; 500 g ai/ha): 100 | Plant response rating, Rice (rice): 20 | Galium plant response rating (galium; [6]): 80 | Galium plant response rating (galium; [7]): 95 | Galium plant response rating (galium; [8]): 98 | Plant response rating, Galium (galium; [9]): 85 | Corn plant response rating (corn; [6]): 0 | Corn plant response rating (corn; [7]): 5 | Corn plant response rating (corn; [8]): 65 | Plant response rating, Corn (corn; [9]): 0 | Morningglory plant response rating (morningglory [1]; [6]): 10 | Morningglory plant response rating (morningglory [1]; [7]): 98 | Morningglory plant response rating (morningglory [1]; [8]): 98 | Plant response rating, Morningglory (morningglory [1]; [9]): 25 | Nutsedge, Yellow plant response rating (yellow nutsedge [2]; [6]): 5 | Nutsedge, Yellow plant response rating (yellow nutsedge [2]; [7]): 50 | Nutsedge, Yellow plant response rating (yellow nutsedge [2]; [8]): 75 | Plant response rating, Nutsedge, Yellow (yellow nutsedge [2]; [9]): 5 | Oilseed Rape plant response rating (oilseed rape; [6]): 80 | Oilseed Rape plant response rating (oilseed rape; [7]): 85 | Oilseed Rape plant response rating (oilseed rape; [8]): 95 | Plant response rating, Oilseed Rape (oilseed rape; [9]): 80 | Blackgrass plant response rating (blackgrass; [10]): 0 | Plant response rating (0 to 100), Blackgrass (blackgrass; 125 g ai/ha, postemergence): 35 | Plant response rating, Blackgrass (blackgrass; [11]): 0 | Plant response rating, Blackgrass (blackgrass; [12]): 10 | Plant response rating (0 to 100), Morningglory (morningglory [3]; 125 g ai/ha, postemergence): 85 | Plant response rating, Morningglory (morningglory [3]; [11]): 85 | Plant response rating, Morningglory (morningglory [3]; [12]): 90 | Plant response rating (0 to 100), Nutsedge, Yellow (yellow nutsedge [4]; 125 g ai/ha, postemergence): 5 | Plant response rating, Nutsedge, Yellow (yellow nutsedge [4]; [11]): 5 | Plant response rating, Nutsedge, Yellow (yellow nutsedge [4]; [12]): 5 | Kochia plant response rating (kochia; [10]): 40 | Plant response rating (0 to 100), Kochia (kochia; 125 g ai/ha, postemergence): 85 | Plant response rating, Kochia (kochia; [11]): 60 | Plant response rating, Kochia (kochia; [12]): 80 | Plant response rating (0 to 100), Oat, Wild (wild oat; 125 g ai/ha, postemergence): 15 | Plant response rating, Oat, Wild (wild oat; [11]): 5 | Plant response rating, Oat, Wild (wild oat; [12]): 10
